The values below come from PMC3971658 (The Journal of General Physiology, 2014).

One experiment deals with GABABR. The settings on record: cited from earlier work.
Experiment [1] deals with rat models of neuropathic pain. The settings on record: in vivo; cited from earlier work.
Experiment [2] deals with human Cav2.3c (α1E-c) channel and GABABR (Homo sapiens, UniProt O75899+Q9UBS5). The experiment is classed as cell-based. As to conditions: 200 nM.
Experiment [3] addresses human Cav2.1 (α1A-2) channel and GABABR (Homo sapiens, UniProt O75899+Q9UBS5). Type of experiment: cell-based. As to conditions: 200 nM.
Experiment [4] has as its system human Cav2.3c channel and GABABR. The experiment is classed as cell-based.

With Vc1.1, the “competition with baclofen for binding to receptors” value with GABABR was “does not compete with baclofen for binding to receptors”. In addition, in experiment [1], the analgesic effect result is reported as “can be used as an analgesic in rat models of neuropathic pain”. The IBa inhibition was 25.5 ± 4.2 (9) % in experiment [2] and 0 (9) % in experiment [3]. Further, the “pathway of inhibition (VD or VI)” value in experiment [4] was “solely mediated by a VI pathway”.
